Measured values published in PubChem BioAssay AID1259407 (Chemical Carcinogenesis Research Information System (CCRIS), 2018).
Active and inactive are the calls of the source. The rule behind the calls is not given here.

Tested on: CCRIS mutagenicity, Ames/micronucleus/aberration tests
Assay: CCRIS mutagenicity studies
[1] = Test System: AMES SALMONELLA TYPHIMURIUM, Strain/Indicator: TA98, Metabolic Activation: HAMSTER, LIVER, S-9, AROCLOR 1254 (10%), Method: PREINCUBATION
[2] = Test System: AMES SALMONELLA TYPHIMURIUM, Strain/Indicator: TA98, Metabolic Activation: NONE, Method: PREINCUBATION
[3] = Test System: AMES SALMONELLA TYPHIMURIUM, Strain/Indicator: TA100, Metabolic Activation: HAMSTER, LIVER, S-9, AROCLOR 1254 (10%), Method: PREINCUBATION
[4] = Test System: AMES SALMONELLA TYPHIMURIUM, Strain/Indicator: TA100, Metabolic Activation: NONE, Method: PREINCUBATION
[5] = Test System: AMES SALMONELLA TYPHIMURIUM, Strain/Indicator: TA1535, Metabolic Activation: HAMSTER, LIVER, S-9, AROCLOR 1254 (10%), Method: PREINCUBATION
[6] = Test System: AMES SALMONELLA TYPHIMURIUM, Strain/Indicator: TA1535, Metabolic Activation: NONE, Method: PREINCUBATION
[7] = Test System: AMES SALMONELLA TYPHIMURIUM, Strain/Indicator: TA1537, Metabolic Activation: NONE, Method: PREINCUBATION
[8] = Test System: AMES SALMONELLA TYPHIMURIUM, Strain/Indicator: TA100, Metabolic Activation: RAT, LIVER, S-9, AROCLOR 1254, Method: STANDARD PLATE

Measured: mutagenic call

CC(C)(c1cc(Br)c(O)c(Br)c1)c1cc(Br)c(O)c(Br)c1
inactive: [1] inactive; negative | [2] inactive; negative | Test System: AMES SALMONELLA TYPHIMURIUM, Strain/Indicator: TA98, Metabolic Activation: RAT, LIVER, S-9, AROCLOR 1254 (10%), Method: PREINCUBATION inactive; negative | [3] inactive; negative | [4] inactive; negative | Test System: AMES SALMONELLA TYPHIMURIUM, Strain/Indicator: TA100, Metabolic Activation: RAT, LIVER, S-9, AROCLOR 1254 (10%), Method: PREINCUBATION inactive; negative | [5] inactive; negative | [6] inactive; negative | Test System: AMES SALMONELLA TYPHIMURIUM, Strain/Indicator: TA1535, Metabolic Activation: RAT, LIVER, S-9, AROCLOR 1254 (10%), Method: PREINCUBATION inactive; negative | Test System: AMES SALMONELLA TYPHIMURIUM, Strain/Indicator: TA1537, Metabolic Activation: HAMSTER, LIVER, S-9, AROCLOR 1254 (10%), Method: PREINCUBATION inactive; negative | [7] inactive; negative | Test System: AMES SALMONELLA TYPHIMURIUM, Strain/Indicator: TA1537, Metabolic Activation: RAT, LIVER, S-9, AROCLOR 1254 (10%), Method: PREINCUBATION inactive; negative

COC1=CC(=O)C(=O)C(C(C)(C)C)=C1
inactive: Test System: AMES SALMONELLA TYPHIMURIUM, Strain/Indicator: TA98, Metabolic Activation: NONE, Method: STANDARD PLATE inactive; negative | Test System: AMES SALMONELLA TYPHIMURIUM, Strain/Indicator: TA98, Metabolic Activation: RAT, LIVER, S-9, AROCLOR 1254, Method: STANDARD PLATE inactive; negative | Test System: AMES SALMONELLA TYPHIMURIUM, Strain/Indicator: TA100, Metabolic Activation: NONE, Method: STANDARD PLATE inactive; negative | [8] inactive; negative

O[C@@H]1C=Cc2c(ccc3cc4c(ccc5ccccc54)cc23)[C@H]1O
active: [8] active; positive

COC(=O)C1=C(C)NC(COC(N)=O)=C(C(=O)OC(C)C)C1c1cccc(Cl)c1Cl (stereo not given)
inactive: [2] inactive; negative | Test System: AMES SALMONELLA TYPHIMURIUM, Strain/Indicator: TA98, Metabolic Activation: RAT, LIVER, S-9, PHENOBARBITAL AND 5,6-BENZOFLAVONE, Method: PREINCUBATION inactive; negative | [4] inactive; negative | Test System: AMES SALMONELLA TYPHIMURIUM, Strain/Indicator: TA100, Metabolic Activation: RAT, LIVER, S-9, PHENOBARBITAL AND 5,6-BENZOFLAVONE, Method: PREINCUBATION inactive; negative | [6] inactive; negative | Test System: AMES SALMONELLA TYPHIMURIUM, Strain/Indicator: TA1535, Metabolic Activation: RAT, LIVER, S-9, PHENOBARBITAL AND 5,6-BENZOFLAVONE, Method: PREINCUBATION inactive; negative | [7] inactive; negative | Test System: AMES SALMONELLA TYPHIMURIUM, Strain/Indicator: TA1537, Metabolic Activation: RAT, LIVER, S-9, PHENOBARBITAL AND 5,6-BENZOFLAVONE, Method: PREINCUBATION inactive; negative | Test System: E. COLI, Strain/Indicator: WP2 UVRA, Metabolic Activation: NONE, Method: PREINCUBATION inactive; negative | Test System: E. COLI, Strain/Indicator: WP2 UVRA, Metabolic Activation: RAT, LIVER, S-9, PHENOBARBITAL AND 5,6-BENZOFLAVONE, Method: PREINCUBATION inactive; negative

COC(=O)C(N)Cc1ccc(Cl)cc1 (stereo not given)
inactive: Test System: AMES SALMONELLA TYPHIMURIUM, Strain/Indicator: TA98, Metabolic Activation: NONE inactive; negative | Test System: AMES SALMONELLA TYPHIMURIUM, Strain/Indicator: TA100, Metabolic Activation: NONE inactive; negative | Test System: AMES SALMONELLA TYPHIMURIUM, Strain/Indicator: TA1535, Metabolic Activation: NONE inactive; negative | Test System: AMES SALMONELLA TYPHIMURIUM, Strain/Indicator: TA1537, Metabolic Activation: NONE inactive; negative | Test System: E. COLI, Strain/Indicator: AB2462 UVRA, Metabolic Activation: NONE, Method: SPOT TEST inactive; negative | Test System: E. COLI, Strain/Indicator: WP6 POLA, Metabolic Activation: NONE, Method: SPOT TEST inactive; negative

ONc1ccc(I)cc1
inactive: Test System: E. COLI, Strain/Indicator: WP2 UVRA, Metabolic Activation: NONE, Method: FLUCTUATION TEST inactive; negative

CCOP(=O)(NC(C)C)Oc1ccc(SC)c(C)c1 (stereo not given)
inactive: Test System: AMES SALMONELLA TYPHIMURIUM, Strain/Indicator: TA97, Metabolic Activation: HAMSTER, LIVER, S-9, AROCLOR 1254 (10%), Method: PREINCUBATION inactive; negative | Test System: AMES SALMONELLA TYPHIMURIUM, Strain/Indicator: TA97, Metabolic Activation: HAMSTER, LIVER, S-9, AROCLOR 1254 (30%), Method: PREINCUBATION inactive; negative | Test System: AMES SALMONELLA TYPHIMURIUM, Strain/Indicator: TA97, Metabolic Activation: NONE, Method: PREINCUBATION inactive; negative | Test System: AMES SALMONELLA TYPHIMURIUM, Strain/Indicator: TA97, Metabolic Activation: RAT, LIVER, S-9, AROCLOR 1254 (10 OR 30%), Method: PREINCUBATION inactive; negative | [1] inactive; negative | Test System: AMES SALMONELLA TYPHIMURIUM, Strain/Indicator: TA98, Metabolic Activation: HAMSTER, LIVER, S-9, AROCLOR 1254 (30%), Method: PREINCUBATION inactive; negative | [2] inactive; negative | Test System: AMES SALMONELLA TYPHIMURIUM, Strain/Indicator: TA98, Metabolic Activation: RAT, LIVER, S-9, AROCLOR 1254 (10 OR 30%), Method: PREINCUBATION inactive; negative | [3] inactive; negative | Test System: AMES SALMONELLA TYPHIMURIUM, Strain/Indicator: TA100, Metabolic Activation: HAMSTER, LIVER, S-9, AROCLOR 1254 (30%), Method: PREINCUBATION inactive; negative | [4] inactive; negative | Test System: AMES SALMONELLA TYPHIMURIUM, Strain/Indicator: TA100, Metabolic Activation: RAT, LIVER, S-9, AROCLOR 1254 (10 OR 30%), Method: PREINCUBATION inactive; negative | [5] inactive; negative | Test System: AMES SALMONELLA TYPHIMURIUM, Strain/Indicator: TA1535, Metabolic Activation: HAMSTER, LIVER, S-9, AROCLOR 1254 (30%), Method: PREINCUBATION inactive; negative | [6] inactive; negative | Test System: AMES SALMONELLA TYPHIMURIUM, Strain/Indicator: TA1535, Metabolic Activation: RAT, LIVER, S-9, AROCLOR 1254 (10 OR 30%), Method: PREINCUBATION inactive; negative
